Results: the supplement of paper PMC4862054

What was measured:
Conditions in all cases: incubation time: 72 h
CAL-148 [1] = assay: normalised response (% of control), CellTiter-Glo; higher = more viable cells (100 = DMSO, 0 = benzethonium chloride kill control)
Outline: (§1)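 Compound was dispensed into 384-well plates at 5 concentrations in 10-fold steps spanning a 10,000-fold range specific to that compound. Breast cancer cell lines were added as 20 µl suspension and left for 72 h before CellTox Green fluorescence (485/520 nm) and then CellTiter-Glo luminescence, read after 10 min at room temperature. Each reported value is the normalised signal at one concentration, with 0.1 % DMSO set at 100 and a positive kill control at 0 on each plate.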

HCC1599 [2] = assay: as above
Outline: as §1

BT-549 [3] = assay: as above
Outline: as §1

MDA-MB-231 [4] = assay: as above
Outline: as §1

BT-474 [5] = assay: as above
Outline: as §1

MFM-223 [6] = assay: as above
Outline: as §1

MDA-MB-453 [7] = assay: as above
Outline: as §1

HCC1143 [8] = assay: as above
Outline: as §1

CAL-51 [9] = assay: as above
Outline: as §1

HCC1937 [10] = assay: as above
Outline: as §1

Hs578T [11] = assay: as above
Outline: as §1

CAL-120 [12] = assay: as above
Outline: as §1

MDA-MB-468 [13] = assay: as above
Outline: as §1

DU-4475 [14] = assay: as above
Outline: as §1

MDA-MB-436 [15] = assay: as above
Outline: as §1

SK-BR-3 = assay: as above
Outline: as §1

MCF-10A [16] = assay: as above
Outline: as §1

HDQ-P1 [17] = assay: as above
Outline: as §1

CAL-85-1 [18] = assay: as above
Outline: as §1

CAL-148 [19] = assay: normalised response (% of control), CellTox Green; higher = less cell death (100 = DMSO, 0 = benzethonium chloride kill control)
Outline: as §1

HCC1599 [20] = assay: as above
Outline: as §1

BT-549 [21] = assay: as above
Outline: as §1

MDA-MB-231 [22] = assay: as above
Outline: as §1

BT-474 [23] = assay: as above
Outline: as §1

MFM-223 [24] = assay: as above
Outline: as §1

MDA-MB-453 [25] = assay: as above
Outline: as §1

HCC1143 [26] = assay: as above
Outline: as §1

CAL-51 [27] = assay: as above
Outline: as §1

HCC1937 [28] = assay: as above
Outline: as §1

Hs578T [29] = assay: as above
Outline: as §1

CAL-120 [30] = assay: as above
Outline: as §1

MDA-MB-468 [31] = assay: as above
Outline: as §1

DU-4475 [32] = assay: as above
Outline: as §1

MDA-MB-436 [33] = assay: as above
Outline: as §1

MCF-10A [34] = assay: as above
Outline: as §1

HDQ-P1 [35] = assay: as above
Outline: as §1

CAL-85-1 [36] = assay: as above
Outline: as §1

SMILES	normalised response (CAL-148 [1])	normalised response (HCC1599 [2])	normalised response (BT-549 [3])	normalised response (MDA-MB-231 [4])	normalised response (BT-474 [5])	normalised response (MFM-223 [6])	normalised response (MDA-MB-453 [7])	normalised response (HCC1143 [8])	normalised response (CAL-51 [9])	normalised response (HCC1937 [10])	normalised response (Hs578T [11])	normalised response (CAL-120 [12])	normalised response (MDA-MB-468 [13])	normalised response (DU-4475 [14])	normalised response (MDA-MB-436 [15])	normalised response (SK-BR-3)	normalised response (MCF-10A [16])	normalised response (HDQ-P1 [17])	normalised response (CAL-85-1 [18])	normalised response (CAL-148 [19])	normalised response (HCC1599 [20])	normalised response (BT-549 [21])	normalised response (MDA-MB-231 [22])	normalised response (BT-474 [23])	normalised response (MFM-223 [24])	normalised response (MDA-MB-453 [25])	normalised response (HCC1143 [26])	normalised response (CAL-51 [27])	normalised response (HCC1937 [28])	normalised response (Hs578T [29])	normalised response (CAL-120 [30])	normalised response (MDA-MB-468 [31])	normalised response (DU-4475 [32])	normalised response (MDA-MB-436 [33])	normalised response (MCF-10A [34])	normalised response (HDQ-P1 [35])	normalised response (CAL-85-1 [36])
COc1cc(F)c(F)c(Nc2ccc(I)cc2F)c1NS(=O)(=O)C1(C[C@H](O)CO)CC1 [Refametinib] (1000 nM)	89.2%	116%	95.7%	59.4%	62.4%	75.9%	96.3%	77.2%	99.3%	79.4%	80.1%	66.1%	72.7%	0.17%	78.4%	82.4%	28.3%	54.5%	52.2%	99.3%	95.8%	115%	39.2%	99.7%	99.6%	106%	70.5%	101%	113%	109%	86.8%	120%	57.4%	97.5%	92.6%	82.9%	46.6%
CC(=O)c1c(C)c2cnc(Nc3ccc(N4CCNCC4)cn3)nc2n(C2CCCC2)c1=O [Palbociclib] (1000 nM)	86.2%	91.6%	102%	84%	78.1%	72.6%	102%	80.3%	103%	94.8%	93.3%	84.6%	86.7%	94.4%	96.6%	75.9%	82.5%	105%	104%	89.8%	98.1%	109%	109%	95.2%	98.4%	101%	70.3%	126%	102%	108%	102%	167%	99%	100%	105%	103%	114%
C[C@]12CC[C@@H]3c4ccc(OC(=O)N(CCCl)CCCl)cc4CC[C@H]3[C@@H]1CC[C@@H]2O [Estramustine] (1000 nM)	78.6%	111%	104%	94.4%	96.1%	86.2%	93.5%	93.5%	80.7%	95.5%	95.9%	99.9%	87.1%	88.5%	98.5%	87.4%	92%	103%	93.3%	46.8%	90.2%	98.6%	94%	89%	93.1%	97.3%	103%	84.7%	67%	–	93.9%	182%	96.5%	93.3%	55.8%	70.6%	107%
CC(=O)O[C@@]12CO[C@@H]1C[C@H](O)[C@@]1(C)C(=O)[C@H](O)C3=C(C)[C@@H](OC(=O)[C@H](O)[C@@H](NC(=O)OC(C)(C)C)c4ccccc4)C[C@@](O)([C@@H](OC(=O)c4ccccc4)[C@H]21)C3(C)C [Docetaxel] (1 nM)	84.6%	97.4%	60.5%	87.8%	84.2%	91.3%	104%	71.5%	115%	83.5%	76.6%	94.6%	50.2%	90.6%	81.5%	68.5%	73.2%	90%	79.9%	–	–	–	–	–	–	–	–	–	–	–	–	–	–	–	–	–	–
CC(=O)c1c(C)c2cnc(Nc3ccc(N4CCNCC4)cn3)nc2n(C2CCCC2)c1=O [Palbociclib] (10 nM)	87%	107%	100%	92.1%	97.2%	91.2%	93.6%	94.5%	115%	101%	100%	95.2%	92.4%	97.2%	95.4%	89.5%	97.3%	97.9%	92%	–	–	–	–	–	–	–	–	–	–	–	–	–	–	–	–	–	–
CC1(C)CCC(CN2CCN(c3ccc(C(=O)NS(=O)(=O)c4ccc(NCC5CCOCC5)c([N+](=O)[O-])c4)c(Oc4cnc5[nH]ccc5c4)c3)CC2)=C(c2ccc(Cl)cc2)C1 [ABT-199] (1000 nM)	105%	105%	101%	99.3%	95.4%	94.5%	102%	101%	69.8%	103%	98.7%	99.5%	93.6%	90.6%	94.8%	107%	96.9%	97.4%	96.9%	71.6%	92.1%	76.5%	102%	99.9%	99.2%	99.2%	74.1%	87.8%	–	105%	89.8%	66.1%	98%	85%	112%	104%	102%
CC(=O)c1c(C)c2cnc(Nc3ccc(N4CCNCC4)cn3)nc2n(C2CCCC2)c1=O [Palbociclib] (1 nM)	88.4%	96.1%	100%	91.6%	89.6%	90.3%	99.2%	88%	118%	101%	95.7%	95%	91.9%	97.8%	101%	86%	89.3%	90.1%	97.8%	–	–	–	–	–	–	–	–	–	–	–	–	–	–	–	–	–	–
Oc1ncnc2[nH]ncc12 [Allopurinol] (10 nM)	107%	104%	101%	99.6%	102%	108%	109%	103%	98.1%	99.2%	97.5%	99%	99%	106%	96.5%	106%	107%	99.5%	98.6%	–	–	–	–	–	–	–	–	–	–	–	–	–	–	–	–	–	–
CC[C@@H]1C(=O)OC[C@@H]1Cc1cncn1C [Pilocarpine] (40 nM)	96.8%	81%	96.1%	97.4%	94.3%	96.1%	106%	103%	127%	97.6%	98.1%	94.2%	94.7%	102%	94%	89.9%	98.1%	98.3%	103%	–	–	–	–	–	–	–	–	–	–	–	–	–	–	–	–	–	–
CC(=O)N(O)CCCCCNC(=O)CCC(=O)N(O)CCCCCNC(=O)CCC(=O)N(O)CCCCCN [Deferoxamine] (10 nM)	88.3%	110%	106%	91.5%	94.5%	96.9%	90.2%	102%	87.7%	101%	97%	97.4%	98.2%	92.3%	96.3%	99%	91.4%	105%	93%	–	–	–	–	–	–	–	–	–	–	–	–	–	–	–	–	–	–
C[C@]12CC[C@@H]3c4ccc(OC(=O)N(CCCl)CCCl)cc4CC[C@H]3[C@@H]1CC[C@@H]2O [Estramustine] (1 nM)	80.3%	109%	97%	94.7%	95.3%	88%	94.6%	96.4%	118%	93.1%	95.5%	97.6%	88.2%	89.3%	106%	90%	86.5%	100%	95%	–	–	–	–	–	–	–	–	–	–	–	–	–	–	–	–	–	–
Cn1cnc2c(F)c(Nc3ccc(Br)cc3Cl)c(C(=O)NOCCO)cc21 [Selumetinib] (10 nM)	90.6%	95%	99.9%	97.2%	89.8%	90.8%	96.8%	91%	107%	97.3%	99.4%	93%	94.8%	95.1%	96.3%	90.6%	77.4%	86.6%	107%	–	–	–	–	–	–	–	–	–	–	–	–	–	–	–	–	–	–
